From US10377770B2 (Novartis AG, priority 2015, dated 2019)

Molecular target: C-Raf FL (full length CRAF with Y340E and Y341E activating mutations, co-expressed with h14-3-3 zeta) (Homo sapiens (Human), UniProt P04049, Y340E/Y341E)
Experiment: In vitro Raf activity determination, AlphaScreen p-MEK readout, c-Raf (C-Raf FL)
Type: biochemical
Conditions: c-Raf approximately 4 nM, ATP 1 μM, pre-incubation 60 minutes, reaction 1 hour
Method in brief: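 Full-length C-Raf (~4 nM) pre-incubated 60 min at room temperature with compound and kinase-dead biotinylated MEK1 (~10 nM) in Tris pH 7.5, 15 mM MgCl2, BSA, DTT. Reaction started with 1 μM ATP and run 1 h at room temperature. Phospho-MEK detected by AlphaScreen with anti-p-MEK antibody.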

Sequence of C-Raf FL (full length CRAF with Y340E and Y341E activating mutations, co-expressed with h14-3-3 zeta) (P04049 whole entry Y340E/Y341E): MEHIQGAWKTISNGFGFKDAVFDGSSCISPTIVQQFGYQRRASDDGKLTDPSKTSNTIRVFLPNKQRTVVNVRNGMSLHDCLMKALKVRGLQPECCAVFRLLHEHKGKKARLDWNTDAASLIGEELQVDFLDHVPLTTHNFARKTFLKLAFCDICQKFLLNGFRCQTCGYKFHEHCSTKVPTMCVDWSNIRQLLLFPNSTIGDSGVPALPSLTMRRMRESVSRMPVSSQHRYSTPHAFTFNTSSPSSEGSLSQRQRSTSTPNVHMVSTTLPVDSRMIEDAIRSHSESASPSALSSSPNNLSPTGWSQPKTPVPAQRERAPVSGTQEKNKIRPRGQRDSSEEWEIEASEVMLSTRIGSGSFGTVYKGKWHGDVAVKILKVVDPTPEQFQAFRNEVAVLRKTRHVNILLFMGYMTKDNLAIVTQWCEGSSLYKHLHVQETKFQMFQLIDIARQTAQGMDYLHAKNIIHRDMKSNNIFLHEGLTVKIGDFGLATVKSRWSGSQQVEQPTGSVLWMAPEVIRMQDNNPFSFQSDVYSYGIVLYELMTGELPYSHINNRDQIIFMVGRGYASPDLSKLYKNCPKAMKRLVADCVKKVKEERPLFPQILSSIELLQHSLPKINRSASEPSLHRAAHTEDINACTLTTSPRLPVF
Sequence of C-Raf FL (full length CRAF with Y340E and Y341E activating mutations, co-expressed with h14-3-3 zeta) (P63104 whole entry partner): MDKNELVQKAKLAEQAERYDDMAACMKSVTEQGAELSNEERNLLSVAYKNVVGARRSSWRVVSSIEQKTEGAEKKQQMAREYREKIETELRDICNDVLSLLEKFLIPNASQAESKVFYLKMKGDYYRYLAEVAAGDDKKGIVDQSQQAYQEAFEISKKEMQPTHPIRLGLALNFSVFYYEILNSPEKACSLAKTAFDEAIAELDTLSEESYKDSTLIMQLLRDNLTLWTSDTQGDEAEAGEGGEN

SMILES | IC50 [nM]
Cc1ccc(NC(=O)c2ccnc(C(C)(F)F)c2)cc1-c1ccc2c(c1)N1CCOC[C@H]1[C@](F)(CF)C2 [Example 473] | 1.5
CCN1C(=O)C2COCCC2(C)c2cc(-c3cc(NC(=O)c4cccc(C(F)(F)F)c4)cnc3C)cnc21 (stereo not drawn) [Example 349, N-(5-((4a,10b- trans)-6-ethyl-10b-methyl-5-oxo-2,4,4a,5,6,10b-hexahydro-1H-pyrano[3,4-c][1,8]naphthyridin-9-yl)-6-methylpyridin-3-yl)-3-(trifluoromethyl) benzamide] | 3
Cc1ccc(NC(=O)c2ccnc(C(C)(F)F)c2)cc1-c1cc(F)c2c(c1)N1CCOC[C@H]1[C@@](F)(CO)C2 [Example 430, N-(3-((4aS,5R)-5,7-difluoro-5-(hydroxymethyl)-1,2,4,4a,5,6-hexahydro-[1,4]oxazino[4,3-a]quinolin-9-yl)-4-methylphenyl)-2-(1,1-difluoroethyl)isonicotinamide] | 0.6
Cc1ncc(NC(=O)c2ccnc(C(C)(F)F)c2)cc1-c1ccc2c(c1)N1CCOCC[C@H]1C[C@H]2O [Example 98, 2-(1,1-difluoroethyl)-N-(5-((5aS,7R)-7-hydroxy-1,2,5,5a,6,7-hexahydro-4H-[1,4]oxazepino[4,5-a]quinolin-10-yl)-6-methylpyridin-3-yl)isonicotinamide] | 0.56
CO[C@@H]1C[C@@H]2COCCN2c2cc(-c3cc(NC(=O)c4ccnc(C(C)(F)F)c4)cnc3C)ccc21 (racemic) [Example 31, (rac)-(trans)-2-(1,1-difluoroethyl)-N-(5-(6-methoxy-1,2,4,4a,5,6-hexahydro-[1,4]oxazino[4,3-a]quinolin-9-yl)-6-methylpyridin-3-yl)isonicotinamide] | 0.033
CC(=O)N[C@H]1c2ncc(-c3cc(NC(=O)c4ccnc(C(F)(F)F)c4)ccc3C)cc2N2CCOC[C@H]2C1(C)C [Example 529, N-(3-((4aR,6R)-6-acetamido-5,5-dimethyl-1,2,4,4a,5,6-hexahydro-[1,4]oxazino[4,3-a][1,5]naphthyridin-9-yl)-4-methylphenyl)-2-(trifluoromethyl)isonicotinamide] | 2.3
Cc1ccc(NC(=O)c2cncc(C(F)(F)F)c2)cc1-c1ccc2c(c1)N1CCOC[C@H]1[C@](F)(CO)C2 [Example 393, N-(3-((4aS,5S)-5-fluoro-5-(hydroxymethyl)-1,2,4,4a,5,6-hexahydro-[1,4]oxazino[4,3-a]quinolin-9-yl)-4-methylphenyl)-5-(trifluoromethyl)nicotinamide] | 0.1
CCN1C(=O)C[C@@H]2COCCN2c2cc(-c3cc(NC(=O)c4ccnc(C(F)(F)F)c4F)ccc3C)cnc21 [Example 327, (R)-N-(3-(7-ethyl-6-oxo-2,4,4a,5,6,7-hexahydro-1H-[1,4]oxazino[4,3-d]pyrido[2,3-b][1,4]diazepin-10-yl)-4-methylphenyl)-3-fluoro-2-(trifluoromethyl) isonicotinamide] | 0.3
Cc1ccc(NC(=O)c2ccnc(C(C)(F)F)c2)cc1-c1cnc2c(c1)N1CCOC[C@@H]1[C@H](CO)C2 [Example 495, 2-(1,1-difluoroethyl)-N-(3-((4aS,5R)-5-(hydroxymethyl)-1,2,4,4a,5,6-hexahydro-[1,4]oxazino[4,3-a][1,5]naphthyridin-9-yl)-4-methylphenyl)iso-nicotinamide] | 0.1
Cc1ccc(NC(=O)c2ccnc(C(C)(C)F)c2)cc1-c1ccc2c(c1)N1CCOCC1CC2O (racemic) [Example 17, (rac)-2-(2-fluoropropan-2-yl)-N-(3-(6-hydroxy-1,2,4,4a,5,6-hexahydro-[1,4]oxazino[4,3-a]quinolin-9-yl)-4-methylphenyl)isonicotinamide] | 0.046
Cc1ccc(NC(=O)c2ccnc(C(C)(C)F)c2)cc1-c1cc(F)c2c(c1)N1CCOC[C@H]1[C@@](F)(CO)C2 [Example 432, N-(3-((4aS,5R)-5,7-difluoro-5-(hydroxymethyl)-1,2,4,4a,5,6-hexahydro-[1,4]oxazino[4,3-a]quinolin-9-yl)-4-methylphenyl)-2-(2-fluoropropan-2-yl)isonicotinamide] | 0.7
Cc1ccc(NC(=O)c2ccnc(C(C)(F)F)c2)cc1-c1ccc2c(c1)N1CCOC[C@H]1[C@](CO)(CF)C2 [Example 410, 2-(1,1-difluoroethyl)-N-(3-((4aR,5R)-5-(fluoromethyl)-5-(hydroxymethyl)-1,2,4,4a,5,6-hexahydro-[1,4]oxazino[4,3-a]quinolin-9-yl)-4-methylphenyl)isonicotinamide] | 0.5
Cc1ncc(NC(=O)c2ccnc(C(C)(F)F)c2)cc1-c1cnc2c(c1)N1CCOC[C@H]1C[C@@H]2O (racemic) [Example 148, rac-cis-2-(1,1-difluoroethyl)-N-(5-(6-hydroxy-1,2,4,4a,5,6-hexahydro-[1,4]oxazino[4,3-a][1,5]naphthyridin-9-yl)-6-methylpyridin-3-yl)isonicotinamide] | 0.046
Cc1ccc(NC(=O)c2ccnc(C(C)(F)F)c2)cc1-c1cc2c(nn1)OC(C)(C)[C@@H]1COCCN21 [Example 137, (S)-2-(1,1-Difluoroethyl)-N-(3-(6,6-dimethyl-6a,7,9,10-tetrahydro-6H-[1,4]oxazino[4,3-d]pyridazino[3,4-b][1,4]oxazin-2-yl)-4-methylphenyl)isonicotinamide] | 0.24
Cc1ccc(NC(=O)c2ccnc(C(C)(F)F)c2)cc1-c1ccc2c(c1)N1CCOC[C@H]1C[C@@]2(C)O [Example 24, 2-(1,1-difluoroethyl)-N-(3-((4aR,6R)-6-hydroxy-6-methyl-1,2,4,4a,5,6-hexahydro-[1,4]oxazino[4,3-a]quinolin-9-yl)-4-methylphenyl)isonicotinamide] | 0.049
Cc1ccc(NC(=O)c2ccnc(C(C)(F)F)c2)cc1-c1cnc2c(c1)N1CCOC[C@H]1C[C@H]2O [Example 108, 2-(1,1-Difluoroethyl)-N-(3-((4aR,6R)-6-hydroxy-1,2,4,4a,5,6-hexahydro-[1,4]oxazino[4,3-a][1,5]naphthyridin-n-9-yl)-4-methylphenyl)isonicotinamide] | 0.013
Cc1ncc(NC(=O)c2cccc(C(F)(F)F)c2)cc1-c1cnc2c(c1)N1CCOC[C@H]1C[C@H]2O [Example 105, N-(5-((4aR,6R)-6-Hydroxy-1,2,4,4a,5,6-hexahydro-[1,4]oxazino[4,3-a][1,5]naphthyridin-9-yl)-6-methylpyridin-3-yl)-3-(trifluoromethyl)benzamide] | 0.045
Cc1ccc(NC(=O)c2ccnc(C(F)(F)F)c2F)cc1-c1cnc2c(c1)N1CCOC[C@H]1CC(=O)N2CCO [Example 322, (R)-3-fluoro-N-(3-(7-(2-hydroxyethyl)-6-oxo-2,4,4a,5,6,7-hexahydro-1H-[1,4]oxazino[4,3-d]pyrido[2,3-b][1,4]diazepin-10-yl)-4-methylphenyl)-2-(trifluoromethyl) isonicotinamide] | 0.3
Cc1ncc(NC(=O)c2cccc(C(F)(F)F)c2)cc1-c1cc2c(cc1F)C[C@@](F)(CO)[C@@H]1COCCN21 [Example 484, N-(5-((4aS,5S)-5,8-difluoro-5-(hydroxymethyl)-1,2,4,4a,5,6-hexahydro-[1,4]oxazino[4,3-a]quinolin-9-yl)-6-methylpyridin-3-yl)-3-(trifluoromethyl) benzamide] | 4.1
Cc1ncc(NC(=O)c2cccc(C(F)(F)F)c2)cc1-c1cnc2c(c1)N1CCOC[C@H]1[C@H](C(C)(C)O)C2 [Example 458, N-(5-((4aR,5R)-5-(2-hydroxypropan-2-yl)-1,2,4,4a,5,6-hexahydro-[1,4]oxazino[4,3-a][1,5]naphthyridin-9-yl)-6-methylpyridin-3-yl)-3-(trifluoro-methyl)benzamide] | 0.7
CCN1C(=O)CC2CCOCCN2c2cc(-c3cc(NC(=O)c4ccnc(C(F)(F)F)c4)ccc3C)cnc21 (centres unmarked) [Example 316, N-(3-(8-ethyl-7-oxo-1,2,4,5,5a,6,7,8-octahydropyrido[3′, 2′:2,3][1,4]diazepino [1,7-d][1,4]oxazepin-11-yl)-4-methylphenyl)-2-(trifluoromethyl) isonicotinamide] | 0.8
Cc1ccc(NC(=O)c2ccnc(C(F)(F)F)c2)cc1-c1cnc2c(c1)N1CCOC[C@H]1[C@H](C(C)(C)O)C2 [Example 457] | 0.4
CCN1C(=O)[C@H]2COCC[C@]2(C)c2cc(-c3cc(NC(=O)c4ccnc(C(C)(F)F)c4)ccc3C)cnc21 (stereo in doubt) [Example 344, 2-(1,1-difluoroethyl)-N-(3-((4a,10b-trans)6-ethyl-10b-methyl-5-oxo-2,4,4a,5,6,10b-hexahydro-1H-pyrano[3,4-c][1,8]naphthyridin-9-yl)-4-methylphenyl)isonicotinamide] | 0.1
Cc1ncc(NC(=O)c2cccc(C(F)(F)F)c2)cc1-c1ccc2c(c1)N1CCOCC[C@H]1C[C@@H]2O [Example 447, N-(5-((5aS,7S)-7-hydroxy-1,2,5,5a,6,7-hexahydro-4H-[1,4]oxazepino [4,5-a]quinolin-10-yl)-6-methylpyridin-3-yl)-3-(trifluoro-methyl)benzamide] | 0.5
Cc1ccc(NC(=O)c2ccnc(C(F)(F)F)c2)cc1-c1cnc2c(c1)N1CCOCC1C(=O)N2 (racemic) [Example 112, rac-N-(4-Methyl-3-(5-oxo-1,2,4,4a,5,6-hexahydropyrido[2′,3′:5,6]pyrazino[2,1-c][1,4]oxazin-9-yl)phenyl)-2-(trifluoromethyl)isonicotinamide] | < 0.0017
Cc1ncc(NC(=O)c2cccc(C(F)(F)F)c2)cc1-c1cnc2c(c1)N1CCOC[C@@H]1[C@H](C(C)(C)O)C2 [Example 449, N-(5-((4aS,5R)-5-(2-hydroxypropan-2-yl)-1,2,4,4a,5,6-hexahydro-[1,4]oxazino[4,3-a] [1,5]naphthyridin-9-yl)-6-methylpyridin-3-yl)-3-(trifluoro-methyl)benzamide] | 0.7
